From ChEMBL document CHEMBL1201862, “PubChem BioAssay data set” (2004)
Calls of active or inactive are those of the source.

What was measured:
[1] = molecular target: T1, Calpain-2 catalytic subunit (Sus scrofa, UniProt P43367); test: pig calpain II inhibitor potency, dose response, biochemical, fluorogenic peptide substrate (AID 1420); type: functional
T1 sequence (P43367 whole entry): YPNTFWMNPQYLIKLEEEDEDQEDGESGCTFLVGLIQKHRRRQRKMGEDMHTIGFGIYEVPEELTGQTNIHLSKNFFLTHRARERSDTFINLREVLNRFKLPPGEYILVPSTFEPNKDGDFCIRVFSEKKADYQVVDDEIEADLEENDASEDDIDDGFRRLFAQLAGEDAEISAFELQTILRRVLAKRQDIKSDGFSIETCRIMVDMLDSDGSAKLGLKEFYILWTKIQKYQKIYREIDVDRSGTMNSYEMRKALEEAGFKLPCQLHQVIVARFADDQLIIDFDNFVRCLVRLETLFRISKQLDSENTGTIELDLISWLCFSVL

[2] = HEp-2 cell cytotoxicity, dose response, cytotoxicity control for RSV inhibitor project, HTS (AID 2410); type: functional; conditions: human respiratory syncytial virus
[3] = cytotoxicity toward NIH3T3 fibroblasts, dose response, counter-screen, cell-based, ATP luminescence, mouse fibroblasts (AID 2010); type: functional;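 further: cells exposed to compound for about 90 hours before reading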
Vero = test: cells; type: functional; conditions: Chlorocebus sabaeus
[4] = inhibitors of intracellular T. cruzi replication, confirmation, NIH3T3 host cells, beta-gal luminescence (AID 2044); type: functional, cell-based;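 further: intracellular parasites grown in NIH/3T3 mouse fibroblasts as host cells; luminescent beta-galactosidase reporter signal from transgenic T. cruzi replicating inside host cells; inhibitors lower the luminescence signal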
[5] = Shn3 3'UTR reporter inhibitors, dose response, cell-based, Clone20 osteoblasts, firefly luciferase, cherry-picked (AID 624132); type: functional;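 further: firefly luciferase luminescence from reporter carrying the Shn3 3'UTR in osteoblasts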
[6] = HepG2 cell cytotoxicity, dose response, cytotoxicity control for Shn3 inhibitor project, CellTiter-Glo, cherry-picked (AID 624134); type: functional, cell-based
[7] = control 3'UTR Renilla luciferase suppression, dose response, counter-screen for Shn3 inhibitor project, cell-based, Clone20-Shn3RL, cherry-picked (AID 624133); type: functional
[8] = cytotoxicity in HEK-293T cells, dose response, cytotoxicity control for TCR NF-kB inhibitor project, luminescence, T-cell screen hits (AID 489026); type: functional, cell-based;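 further: cells exposed to compound about 14 hours before the viability readout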
[9] = microbe, parasite or virus in culture; type: functional; conditions: Mycobacterium tuberculosis
[10] = inhibitors of SNCA 5'UTR-driven reporter translation, confirmation, H4 neuroglioma cells, luminescence (AID 1988); type: functional, cell-based
HEK293 = test: inhibitors of LMP1-driven NF-kB reporter, dose response, cell-based, HEK293, luciferase, cherry-pick (AID 588343); type: functional; conditions: Homo sapiens
[11] = Luminescence Cell-Based Dose Response HTS to Identify Inhibitors of 5'UTR Stem-Loop Driven Prion Protein mRNA Translation in H4 Neuroglioblastoma Cells. [Related pubchem assays: 1827 (Project Summary), 1813 (Primary HTS)]; type: functional
[12] = inhibitors of firefly luciferase expression or activity, dose response, H4 neuroglioma cells, luminescence (AID 1990); type: functional, cell-based
[13] = ZM109 Env clade C HIV-1 fusion inhibitors, dose response, HeLa effector, CEM target cells, luciferase, cherry-pick (AID 652058); type: functional, cell-based
[14] = inhibitors of HIV Env-driven cell fusion, dose response, cherry-pick (AID 652057); type: functional, cell-based
[15] = inhibitors of clade B AD8 Env fusion, dose response, cell-based, cherry-pick (AID 652062); type: functional;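 further: luciferase signal from cell-cell fusion driven by HIV-1 clade B AD8 Env; potency is for inhibitors of fusion seen as a drop in luminescence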
[16] = off-target signal loss in HeLa-CEM21 co-culture – HeLa F-luc CTL cells, cherry-picked, counter-screen for HIV-1 Env fusion inhibitor project, dose response (AID 652040); type: functional, cell-based;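 further: potency for signal decrease marking cytotoxic or nonspecific inhibition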
[17] = molecular target: T2, Ubiquitin-conjugating enzyme E2 N (Homo sapiens, UniProt P61088); type: functional;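 further: Dose-response confirmation in a TR-FRET assay detecting UBC13-driven polyubiquitin chain formation, inhibition measured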
T2 sequence (P61088 whole entry): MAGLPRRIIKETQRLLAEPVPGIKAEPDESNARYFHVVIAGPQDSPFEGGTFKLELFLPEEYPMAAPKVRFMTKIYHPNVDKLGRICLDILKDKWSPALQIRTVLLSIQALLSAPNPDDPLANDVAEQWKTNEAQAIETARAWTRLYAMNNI

Streptococcus = test: Group A Streptococcus viability loss, dose response, counter-screen for streptokinase expression inhibitor project, luminescence, BacTiterGlo (AID 1915); type: functional, organism-based;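 further: potency for reduction of bacterial viability or growth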
[18] = test system: Streptococcus sp. 'group A'; test: growth inhibition of control SK(-) GAS strain, dose response, counter-screen for streptokinase expression inhibitor project, luminescence, kanamycin, BacTiterGlo, confirmation (AID 1900); type: functional, organism-based
Fatty acid synthase [19] = molecular target: T3, Fatty acid synthase (Homo sapiens, UniProt P49327); test: FAS thioesterase domain inhibitors, dose response, biochemical, endpoint fluorescence intensity, uHTS hits (AID 624327); type: functional;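 further: fluorescence from hydrolysis of an O-methyl fluorescein acyl ester substrate by the enzyme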
T3 sequence (P49327 whole entry, the tested form may be a part): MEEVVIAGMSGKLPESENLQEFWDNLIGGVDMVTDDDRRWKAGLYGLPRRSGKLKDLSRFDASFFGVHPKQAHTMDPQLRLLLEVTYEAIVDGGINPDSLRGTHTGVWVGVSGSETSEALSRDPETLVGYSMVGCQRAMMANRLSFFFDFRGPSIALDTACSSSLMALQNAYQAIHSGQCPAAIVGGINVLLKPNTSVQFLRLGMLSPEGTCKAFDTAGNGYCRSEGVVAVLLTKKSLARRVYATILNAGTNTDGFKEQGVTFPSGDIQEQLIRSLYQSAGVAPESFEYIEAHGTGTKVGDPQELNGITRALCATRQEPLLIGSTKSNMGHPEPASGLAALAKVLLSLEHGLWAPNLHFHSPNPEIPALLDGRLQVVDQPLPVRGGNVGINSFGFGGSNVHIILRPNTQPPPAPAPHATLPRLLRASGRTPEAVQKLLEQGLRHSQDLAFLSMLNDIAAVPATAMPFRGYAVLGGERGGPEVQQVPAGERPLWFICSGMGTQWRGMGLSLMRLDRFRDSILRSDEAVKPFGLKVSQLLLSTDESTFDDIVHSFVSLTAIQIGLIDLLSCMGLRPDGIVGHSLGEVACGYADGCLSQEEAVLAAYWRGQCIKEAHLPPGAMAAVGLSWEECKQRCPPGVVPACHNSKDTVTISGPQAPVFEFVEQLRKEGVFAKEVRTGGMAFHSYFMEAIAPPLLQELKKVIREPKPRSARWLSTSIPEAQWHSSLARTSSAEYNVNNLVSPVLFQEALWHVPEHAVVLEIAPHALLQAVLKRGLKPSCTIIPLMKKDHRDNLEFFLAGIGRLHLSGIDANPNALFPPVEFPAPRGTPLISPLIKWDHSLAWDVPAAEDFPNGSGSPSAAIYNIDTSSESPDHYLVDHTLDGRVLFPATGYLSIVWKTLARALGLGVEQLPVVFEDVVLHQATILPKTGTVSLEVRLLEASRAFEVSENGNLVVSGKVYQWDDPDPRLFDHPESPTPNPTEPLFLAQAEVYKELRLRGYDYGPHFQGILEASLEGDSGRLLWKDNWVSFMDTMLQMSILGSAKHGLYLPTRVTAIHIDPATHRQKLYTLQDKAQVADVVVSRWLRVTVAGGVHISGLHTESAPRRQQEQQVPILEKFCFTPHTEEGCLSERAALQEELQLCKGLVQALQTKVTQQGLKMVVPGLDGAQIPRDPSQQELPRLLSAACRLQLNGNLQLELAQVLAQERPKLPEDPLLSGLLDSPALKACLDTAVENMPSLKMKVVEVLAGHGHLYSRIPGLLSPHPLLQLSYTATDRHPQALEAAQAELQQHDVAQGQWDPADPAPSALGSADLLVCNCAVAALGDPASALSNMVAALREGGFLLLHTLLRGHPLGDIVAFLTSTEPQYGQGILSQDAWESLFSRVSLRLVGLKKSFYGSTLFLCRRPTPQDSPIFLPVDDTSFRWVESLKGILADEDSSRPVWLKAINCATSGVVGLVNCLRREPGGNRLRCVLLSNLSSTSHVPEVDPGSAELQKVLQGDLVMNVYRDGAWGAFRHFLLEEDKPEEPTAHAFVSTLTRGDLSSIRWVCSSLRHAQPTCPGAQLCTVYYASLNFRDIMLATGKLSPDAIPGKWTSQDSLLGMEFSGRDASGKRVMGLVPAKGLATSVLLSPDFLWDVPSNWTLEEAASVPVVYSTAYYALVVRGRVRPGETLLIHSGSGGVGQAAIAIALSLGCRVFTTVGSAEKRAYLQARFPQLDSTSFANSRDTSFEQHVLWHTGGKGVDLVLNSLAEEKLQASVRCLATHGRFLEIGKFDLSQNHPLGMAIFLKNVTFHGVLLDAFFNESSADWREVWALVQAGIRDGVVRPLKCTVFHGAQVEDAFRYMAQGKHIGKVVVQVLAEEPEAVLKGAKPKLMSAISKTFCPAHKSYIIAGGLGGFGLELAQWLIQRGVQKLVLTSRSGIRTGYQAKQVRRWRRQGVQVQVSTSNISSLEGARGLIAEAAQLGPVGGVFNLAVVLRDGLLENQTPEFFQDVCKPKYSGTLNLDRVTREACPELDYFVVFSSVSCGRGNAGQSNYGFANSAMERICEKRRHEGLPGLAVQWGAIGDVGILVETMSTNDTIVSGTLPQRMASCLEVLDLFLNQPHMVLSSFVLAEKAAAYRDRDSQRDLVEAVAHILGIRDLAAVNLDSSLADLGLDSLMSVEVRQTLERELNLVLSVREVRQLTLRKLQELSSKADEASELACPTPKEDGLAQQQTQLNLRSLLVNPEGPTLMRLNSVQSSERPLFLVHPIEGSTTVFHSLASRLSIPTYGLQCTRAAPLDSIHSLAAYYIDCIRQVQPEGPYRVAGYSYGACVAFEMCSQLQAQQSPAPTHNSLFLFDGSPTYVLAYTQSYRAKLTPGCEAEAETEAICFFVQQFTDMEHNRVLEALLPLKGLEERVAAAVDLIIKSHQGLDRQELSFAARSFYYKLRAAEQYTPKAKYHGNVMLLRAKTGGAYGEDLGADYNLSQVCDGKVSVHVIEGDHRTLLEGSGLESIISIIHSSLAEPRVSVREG

Fatty acid synthase [20] = molecular target: T3, Fatty acid synthase; test: FAS thioesterase domain inhibitors, dose response, biochemical, kinetic fluorescence intensity (AID 624326); type: functional;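 further: rate of fluorescence rise from hydrolysis of a fluorogenic O-methyl fluorescein ester substrate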
INS1 = test: beta cell apoptosis inhibitors, cytokine rescue, dose response, luminescence, retest (AID 449756); type: functional, cell-based; conditions: Rattus norvegicus;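 further: cell death triggered by IL-1 beta plus TNF-alpha plus IFN-gamma mixture; protective hits raise ATP signal compared with cytokine alone wells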

CCOC(=O)C1=C(CNC(C)(C)CC(C)(C)C)NC(=O)NC1c1cccc([N+](=O)[O-])c1 (stereo not drawn)
IC50 [1]: > 50 µM (not active)

Cc1cc(N2CCN(c3ccccc3)CC2)n2cc(-c3ccccc3)nc2n1
CC50 [2]: 45.6 µM (active)
IC50 (cells): 40 µM (active)

CCOC(=O)N1CCC(NC(=O)c2ccc3c(c2)ncn3C2CCCC2)CC1
IC50 [1]: 23.1 µM (not active)

CCc1ccc2nc(N(CCCN(C)C)C(=O)c3ccc4c(c3)OCCO4)sc2c1
EC50 [3]: 8.8 µM (active)
CC50 (Vero): > 25 µM (active)
EC50 [4]: 0.214 µM (active)

C=C(CN(C)C)C(=O)c1ccc(C)cc1C
AC50 [5]: 0.77 µM (active)
AC50 [6]: 18.5 µM (active)
AC50 [7]: 5.15 µM (active)

CC1CCCN(CCCNC(=O)c2ccc3c(c2)N(Cc2cccc(Cl)c2)C(=O)c2ccccc2[S+]3[O-])C1 (stereo not drawn)
CC50 (Vero): > 25 µM (active)

CC(=O)O[C@H]1C(=O)[C@]2(C)[C@H]([C@H](OC(=O)c3ccccc3)[C@]3(O)C[C@H](OC(=O)[C@H](O)[C@@H](NC(=O)c4ccccc4)c4ccccc4)C(C)=C1C3(C)C)[C@]1(OC(C)=O)CO[C@@H]1C[C@@H]2O
IC50 [8]: > 80 µM (inactive)

Cc1ccc(OCc2cc(C(=O)N(C)Cc3cnc4ccccn34)no2)cc1C
CC50 [9]: > 40 µM (active)

COc1ccc2cc(C(N)=O)/c(=N\NC(=O)c3ccccc3)oc2c1
EC50 [10]: 7.7 µM (active)
AC50 (HEK293): 2.83 µM (active)
EC50 [11]: 8.54 µM (active)
EC50 [12]: 9.51 µM (inconclusive)

COc1ccccc1NCC(=O)Nc1cc(S(=O)(=O)N2CCOCC2)ccc1N1CCOCC1
IC50 (cells): 5.88 µM (active)

OCCCNCc1ccc(N(c2ccccc2)c2ccccc2)cc1
CC50 (Vero): > 25 µM (active)

Cc1ncccc1C(=O)N1CCCC(C(=O)c2ccc3c4c(cccc24)CC3)C1 (stereo not drawn)
AC50 [13]: 8.12 µM (active)
AC50 [14]: 7.15 µM (active)
AC50 [15]: 8.47 µM (active)
AC50 [16]: 20.4 µM (active)

NC(=O)c1nsc(C(=O)N(c2ccc(Cl)cc2)C(C(=O)NCC2CCCO2)c2cccs2)c1N (stereo not drawn)
IC50 [17]: > 20 µM (inactive)

O=C(/C=C/c1ccc(Br)cc1)NC(=S)NNC(=O)c1ccco1
CC50 (Vero): > 25 µM (active)
EC50 (Streptococcus): 0.887 µM (active)
EC50 [18]: 0.343 µM (active)

COc1ccc2c(c1)C(=NNC(=O)c1ccccn1)c1cc(OC)ccc1-2
CC50 [2]: 38.6 µM (active)
IC50 (cells): 24.6 µM (active)

Cc1ccc(S(=O)(=O)Nc2cccc(-c3ccc4nncn4n3)c2)cc1
IC50 [8]: > 80 µM (inactive)
IC50 (Fatty acid synthase [19]): 15.7 µM (active)
IC50 (Fatty acid synthase [20]): 21.3 µM (inactive)

Cc1ccc(Nc2nc(NCC3CC3)nc3ccsc23)c(C)c1
AC50 [5]: 5.82 µM (active)
AC50 [6]: > 70 µM (inactive)
AC50 [7]: 19.4 µM (active)

O=S(=O)(c1ccccc1F)N1CCCC(c2nc(O)c3nnn(Cc4ccccc4Cl)c3n2)C1 (stereo not drawn)
CC50 [2]: 47.8 µM (active)
IC50 (cells): 47.6 µM (active)

CCc1ccc2nc(O)c(C(c3nnnn3Cc3ccc(OC)cc3)N3CCOCC3)cc2c1 (stereo not drawn)
AC50 [13]: 6.44 µM (active)
AC50 [14]: 4.74 µM (active)
AC50 [15]: 43.7 µM (active)
AC50 [16]: 7.97 µM (active)

CCOC(=O)c1c(CSc2nc(C)cc(C)c2C#N)n(C)c2cc(Br)c(OC(C)=O)cc12
AC50 (INS1): 4.21 µM (active)
AC50 (HEK293): 31.6 µM (active)
